Organism: Rattus norvegicus
Assay: DrugMatrix - Regimen: Daily Repeat
Assay type: toxicity, organism-based, Sprague-Dawley
Design: regimen Daily Repeat, gender Male, age 6-8 weeks
Conditions: in vivo, po, route oral GAVAGE, vehicle .5 % CMC; for ABSOLUTE BASOPHIL / ABSOLUTE EOSINOPHIL / ABSOLUTE LYMPHOCYTE / ABSOLUTE MONOCYTE / BASOPHIL / ERYTHROCYTE COUNT / HEMATOCRIT / HEMOGLOBIN / LYMPHOCYTE / MEAN CORPUSCULAR HEMOGLOBIN / MEAN CORPUSCULAR HEMOGLOBIN CONCENTRATION / MEAN CORPUSCULAR VOLUME / NEUTROPHIL / NUCLEATED RED BLOOD CELLS / PLATELET COUNT / ABSOLUTE SEGMENTED NEUTROPHIL: tissue Blood; for ALANINE AMINOTRANSFERASE / ALKALINE PHOSPHATASE / ASPARTATE AMINOTRANSFERASE / BLOOD UREA NITROGEN / CARBON DIOXIDE / CHOLESTEROL / CREATINE PHOSPHOKINASE / CREATININE / GLUCOSE / LACTATE DEHYDROGENASE / LIPASE / PHOSPHORUS / POTASSIUM / SODIUM / TOTAL BILIRUBIN / TOTAL PROTEIN: tissue Plasma
[1] = 0 mg/kg, 72 h, dose level Control, time 3 day
[2] = 0 mg/kg, 120 h, dose level Control, time 5 day
[3] = 0.06 mg/kg, 72 h, dose level Low, time 3 day
[4] = 0.06 mg/kg, 120 h, dose level Low, time 5 day
[5] = […], 72 h, dose 0.25 mg/Kg, dose level High, time 3 day
[6] = […], 120 h, dose 0.25 mg/Kg, dose level High, time 5 day

## CC(=O)CC(c1ccccc1)c1c(O)c2ccccc2oc1=O (stereo not given) [WARFARIN]
[1]
  ABSOLUTE BASOPHIL: 0 CELLS/uL
  ABSOLUTE EOSINOPHIL: 284.5 CELLS/uL
  ABSOLUTE LYMPHOCYTE: 11670.5 CELLS/uL
  ABSOLUTE MONOCYTE: 420.83 CELLS/uL
  BASOPHIL: 0%
  ERYTHROCYTE COUNT: 5.38 x10E6/uL
  HEMATOCRIT: 34.05%
  HEMOGLOBIN: 12.75 G/DL
  LYMPHOCYTE: 88.33%
  MEAN CORPUSCULAR HEMOGLOBIN: 23.73 pg
  MEAN CORPUSCULAR HEMOGLOBIN CONCENTRATION: 37.43 G/DL
  MEAN CORPUSCULAR VOLUME: 63.4 fL
  NEUTROPHIL: 7.17%
  NUCLEATED RED BLOOD CELLS: 0 /100WBC
  PLATELET COUNT: 1184.67 x10E3/uL
  ALANINE AMINOTRANSFERASE: 45.33 u/L
  ALKALINE PHOSPHATASE: 388.83 u/L
  ASPARTATE AMINOTRANSFERASE: 84.83 u/L
  BLOOD UREA NITROGEN: 15.5 mg/dL
  CARBON DIOXIDE: 27 mmol/L
  CHOLESTEROL: 76.67 mg/dL
  CREATINE PHOSPHOKINASE: 301 u/L
  CREATININE: 0.21 mg/dL
  GLUCOSE: 168.83 mg/dL
  LACTATE DEHYDROGENASE: 294.83 u/L
  LIPASE: 9.8 u/L
  PHOSPHORUS: 13.25 mg/dL
  POTASSIUM: 6.41 MEQ/L
  SODIUM: 143.72 MEQ/L
  TOTAL BILIRUBIN: 0.22 mg/dL
  TOTAL PROTEIN: 5.98 G/DL
[2]
  ABSOLUTE BASOPHIL: 0 CELLS/uL
  ABSOLUTE EOSINOPHIL: 190.67 CELLS/uL
  ABSOLUTE LYMPHOCYTE: 12549.5 CELLS/uL
  ABSOLUTE MONOCYTE: 276 CELLS/uL
  ABSOLUTE SEGMENTED NEUTROPHIL: 1067.17 CELLS/uL
  BASOPHIL: 0%
  ERYTHROCYTE COUNT: 5.66 x10E6/uL
  HEMATOCRIT: 35.92%
  HEMOGLOBIN: 13.65 G/DL
  LYMPHOCYTE: 89%
  MEAN CORPUSCULAR HEMOGLOBIN: 24.12 pg
  MEAN CORPUSCULAR HEMOGLOBIN CONCENTRATION: 38.03 G/DL
  MEAN CORPUSCULAR VOLUME: 63.47 fL
  NEUTROPHIL: 7.67%
  NUCLEATED RED BLOOD CELLS: 0.17 /100WBC
  PLATELET COUNT: 1251.67 x10E3/uL
  ALANINE AMINOTRANSFERASE: 43.33 u/L
  ALKALINE PHOSPHATASE: 365.67 u/L
  ASPARTATE AMINOTRANSFERASE: 83.67 u/L
  BLOOD UREA NITROGEN: 18.17 mg/dL
  CARBON DIOXIDE: 28.67 mmol/L
  CHOLESTEROL: 71.5 mg/dL
  CREATINE PHOSPHOKINASE: 284.5 u/L
  CREATININE: 0.21 mg/dL
  GLUCOSE: 161.67 mg/dL
  LACTATE DEHYDROGENASE: 259.67 u/L
  LIPASE: 9.5 u/L
  PHOSPHORUS: 12.45 mg/dL
  POTASSIUM: 6.49 MEQ/L
  SODIUM: 144.25 MEQ/L
  TOTAL BILIRUBIN: 0.2 mg/dL
  TOTAL PROTEIN: 6.1 G/DL
[3]
  ABSOLUTE BASOPHIL: 0 CELLS/uL
  ABSOLUTE EOSINOPHIL: 18.67 CELLS/uL
  ABSOLUTE LYMPHOCYTE: 6429.67 CELLS/uL
  ABSOLUTE MONOCYTE: 120.33 CELLS/uL
  ABSOLUTE SEGMENTED NEUTROPHIL: 364.67 CELLS/uL
  BASOPHIL: 0%
  ERYTHROCYTE COUNT: 5.26 x10E6/uL
  HEMATOCRIT: 33.97%
  HEMOGLOBIN: 12.8 G/DL
  LYMPHOCYTE: 92.67%
  MEAN CORPUSCULAR HEMOGLOBIN: 24.33 pg
  MEAN CORPUSCULAR HEMOGLOBIN CONCENTRATION: 37.67 G/DL
  MEAN CORPUSCULAR VOLUME: 64.6 fL
  NEUTROPHIL: 5.33%
  NUCLEATED RED BLOOD CELLS: 0 /100WBC
  PLATELET COUNT: 1234.33 x10E3/uL
  ALANINE AMINOTRANSFERASE: 50 u/L
  ALKALINE PHOSPHATASE: 307.67 u/L
  ASPARTATE AMINOTRANSFERASE: 80.67 u/L
  BLOOD UREA NITROGEN: 15.33 mg/dL
  CARBON DIOXIDE: 28.67 mmol/L
  CHOLESTEROL: 72.67 mg/dL
  CREATINE PHOSPHOKINASE: 222.67 u/L
  CREATININE: 0.21 mg/dL
  GLUCOSE: 142.33 mg/dL
  LACTATE DEHYDROGENASE: 174.67 u/L
  LIPASE: 9.5 u/L
  PHOSPHORUS: 12.87 mg/dL
  POTASSIUM: 6.97 MEQ/L
  SODIUM: 146.9 MEQ/L
  TOTAL BILIRUBIN: 0.23 mg/dL
  TOTAL PROTEIN: 6.03 G/DL
[4]
  ABSOLUTE BASOPHIL: 0 CELLS/uL
  ABSOLUTE EOSINOPHIL: 123.33 CELLS/uL
  ABSOLUTE LYMPHOCYTE: 12690 CELLS/uL
  ABSOLUTE MONOCYTE: 175.33 CELLS/uL
  ABSOLUTE SEGMENTED NEUTROPHIL: 1111.33 CELLS/uL
  BASOPHIL: 0%
  ERYTHROCYTE COUNT: 5.59 x10E6/uL
  HEMATOCRIT: 35.53%
  HEMOGLOBIN: 13.5 G/DL
  LYMPHOCYTE: 90%
  MEAN CORPUSCULAR HEMOGLOBIN: 24.2 pg
  MEAN CORPUSCULAR HEMOGLOBIN CONCENTRATION: 38 G/DL
  MEAN CORPUSCULAR VOLUME: 63.67 fL
  NEUTROPHIL: 8%
  NUCLEATED RED BLOOD CELLS: 0 /100WBC
  PLATELET COUNT: 1320.67 x10E3/uL
  ALANINE AMINOTRANSFERASE: 47.33 u/L
  ALKALINE PHOSPHATASE: 339.67 u/L
  ASPARTATE AMINOTRANSFERASE: 76.33 u/L
  BLOOD UREA NITROGEN: 16 mg/dL
  CHOLESTEROL: 66.67 mg/dL
  CREATINE PHOSPHOKINASE: 293.33 u/L
  CREATININE: 0.14 mg/dL
  GLUCOSE: 149 mg/dL
  LACTATE DEHYDROGENASE: 203 u/L
  LIPASE: 9.33 u/L
  PHOSPHORUS: 13.2 mg/dL
  POTASSIUM: 6.78 MEQ/L
  SODIUM: 144.27 MEQ/L
  TOTAL BILIRUBIN: 0.2 mg/dL
  TOTAL PROTEIN: 6 G/DL
[5]
  ABSOLUTE BASOPHIL: 0 CELLS/uL
  ABSOLUTE EOSINOPHIL: 246.33 CELLS/uL
  ABSOLUTE LYMPHOCYTE: 13716 CELLS/uL
  ABSOLUTE MONOCYTE: 364 CELLS/uL
  ABSOLUTE SEGMENTED NEUTROPHIL: 1007 CELLS/uL
  BASOPHIL: 0%
  ERYTHROCYTE COUNT: 5.82 x10E6/uL
  HEMATOCRIT: 37.73%
  HEMOGLOBIN: 14.07 G/DL
  LYMPHOCYTE: 89.33%
  MEAN CORPUSCULAR HEMOGLOBIN: 24.2 pg
  MEAN CORPUSCULAR HEMOGLOBIN CONCENTRATION: 37.33 G/DL
  MEAN CORPUSCULAR VOLUME: 64.87 fL
  NEUTROPHIL: 6.67%
  NUCLEATED RED BLOOD CELLS: 0 /100WBC
  PLATELET COUNT: 1397.33 x10E3/uL
  ALANINE AMINOTRANSFERASE: 57 u/L
  ALKALINE PHOSPHATASE: 354 u/L
  ASPARTATE AMINOTRANSFERASE: 82 u/L
  BLOOD UREA NITROGEN: 15.33 mg/dL
  CARBON DIOXIDE: 25.67 mmol/L
  CHOLESTEROL: 86 mg/dL
  CREATINE PHOSPHOKINASE: 467.67 u/L
  CREATININE: 0.18 mg/dL
  GLUCOSE: 156 mg/dL
  LACTATE DEHYDROGENASE: 145 u/L
  LIPASE: 10.67 u/L
  PHOSPHORUS: 13.7 mg/dL
  POTASSIUM: 6.91 MEQ/L
  SODIUM: 145.27 MEQ/L
  TOTAL BILIRUBIN: 0.23 mg/dL
  TOTAL PROTEIN: 5.93 G/DL
[6]
  ABSOLUTE BASOPHIL: 0 CELLS/uL
  ABSOLUTE EOSINOPHIL: 86.67 CELLS/uL
  ABSOLUTE LYMPHOCYTE: 13093.33 CELLS/uL
  ABSOLUTE MONOCYTE: 240.67 CELLS/uL
  ABSOLUTE SEGMENTED NEUTROPHIL: 779.33 CELLS/uL
  BASOPHIL: 0%
  ERYTHROCYTE COUNT: 5.78 x10E6/uL
  HEMATOCRIT: 36.23%
  HEMOGLOBIN: 13.7 G/DL
  LYMPHOCYTE: 92%
  MEAN CORPUSCULAR HEMOGLOBIN: 23.7 pg
  MEAN CORPUSCULAR HEMOGLOBIN CONCENTRATION: 37.87 G/DL
  MEAN CORPUSCULAR VOLUME: 62.63 fL
  NEUTROPHIL: 5.67%
  NUCLEATED RED BLOOD CELLS: 0 /100WBC
  PLATELET COUNT: 1328.33 x10E3/uL
  ALANINE AMINOTRANSFERASE: 45.33 u/L
  ALKALINE PHOSPHATASE: 285 u/L
  ASPARTATE AMINOTRANSFERASE: 79.67 u/L
  BLOOD UREA NITROGEN: 17.33 mg/dL
  CARBON DIOXIDE: 26.67 mmol/L
  CHOLESTEROL: 69.67 mg/dL
  CREATINE PHOSPHOKINASE: 518.33 u/L
  CREATININE: 0.2 mg/dL
  GLUCOSE: 156.33 mg/dL
  LACTATE DEHYDROGENASE: 92.67 u/L
  LIPASE: 8.67 u/L
  PHOSPHORUS: 13.27 mg/dL
  POTASSIUM: 6.55 MEQ/L
  SODIUM: 147.93 MEQ/L
  TOTAL BILIRUBIN: 0.17 mg/dL
  TOTAL PROTEIN: 6.33 G/DL
